Data as given in patent publication US20210317099A1, “SAFER, POTENT, AND FAST ACTING ANTIMICROBIAL AGENTS” (Purdue Research Foundation, priority 2020, published 2021).

Legend:
MRSA USA 400 = assay: Time-kill assay; assay type: cell-based, Staphylococcus aureus; conditions: 5×MIC; for time required for complete eradication of the bacterial count: MRSA USA 400, 24-hour incubation
Description: In order to the mode of killing of methylene lactone compounds, a time kill assay was performed against MRSA USA 400 as described previously. MRSA USA400 cells in logarithmic growth phase (OD600˜1.00) were diluted to 6.03×10^6 colony-forming units (CFU/mL) and exposed to concentrations equivalent to 5×MIC (in triplicate) of 148, 149, 151, 155, 158 and vancomycin in Tryptic soy broth. Aliquots (100 μL) were collected from each treatment after 0, 2, 4, 6, 8, 12, and 24 hours of incubation at 37° C. and subsequently serially diluted in PBS. Bacteria were then transferred to Tryptic soy agar plates and incubated at 37° C. for 18-20 hours before viable CFU/mL was determined (FIG. 1).
DMSO (solvent for the compounds) served as a negative control and vancomycin served as a control drug. The error bars represent standard deviation values obtained from triplicate samples used for each compound/antibiotic studied.

[1] = test system: total proteases production in MRSA USA300; assay: Inhibition of staphylococcal total proteases production, skimmed milk method; assay type: cell-based, Staphylococcus aureus; conditions: MRSA USA300, 0.25×MIC, untreated = 100%
Description: The modified skimmed milk method was utilized to investigate the protease inhibitory activities of BHS compounds as described previously. In brief, overnight culture of MRSA300 in TSB, with and without subinhibitory concentrations of compounds (in triplicate), was centrifuged at 14000×g for 10 minutes. Then, a total volume of 500 μL of culture supernatant was incubated with 1 mL skimmed milk (1.25%) at 37° C. for 1 hour. Afterwards, the OD600 was measured to indicate the degree of clearance of skimmed milk. Higher OD values indicate lower proteolytic activity and greater protease inhibitory activity.
FIG. 4. Influence of BHS compounds on the staphylococcal total protease production. OD600 was measured following overnight culturing of MRSA USA300 in TSB in presence and absence of 0.25×MIC of 148, 149, 155, 158 and vancomycin followed by incubation of supernatants with skim milk for 1 hour at 37° C. The Data are presented as percent production (means±standard deviation). DMSO (the solvent for the compounds that served as a negative control). Vancomycin served as the control antibiotic. The values represent an average (means±standard deviation) of four samples analyzed for each compound/antibiotic. Error bars represent standard deviation values. An asterisk (*) denotes statistical significance (P<0.05) between results for compounds 148, 149, 155, 158 and vancomycin analyzed via unpaired t test ([…]).

[2] = test system: intracellular MRSA USA400 inside murine macrophage (J774) cells; assay: Clearance of intracellular MRSA in infected J774 macrophages; assay type: cell-based, Staphylococcus aureus; conditions: 24 hours, J774 infected with MRSA USA400
Description: The ability of the compound 148 to reduce the burden of intracellular MRSA was evaluated utilizing previously described methods. Murine macrophage cells (J774) were cultured in Dulbecco's Modified Eagle Medium (DMEM) supplemented with 10% FBS at 37° C. with CO2 (5%). J774 cells were exposed to MRSA USA400 cells at a multiplicity of infection of approximately 10:1. After 1 hour of infection, J774 cells were washed with gentamicin (200 μg/mL) to kill extracellular MRSA. The compounds or vancomycin (at 4×MIC and 8×MIC) were subsequently added to each well (four replicates per test agent). Control cells received DMSO at a concentration equal to that in drug-treated cell samples. After 24 hours-incubation at 37° C. with 5% CO2, the test agents were removed. J774 cells were washed and subsequently lysed using 0.1% Triton-X. The solution was serially diluted in phosphate-buffered saline and transferred to TSA plates in order to determine viable MRSA CFU inside the J774 cells. Plates were incubated at 37° C. for 18-22 hour before counting viable CFU/mL. Statistical significance was assessed with two-way ANOVA, with post hoc Dunnet's multiple comparisons test (P<0.05), utilizing GraphPad Prism 6.0 (GraphPad Software, La Jolla, Calif.).
FIG. 6. Examination of the activity of compounds 148 on the clearance of intracellular MRSA present inside infected murine macrophage (J774) cells. […] Data were analyzed via two-way ANOVA, with post hoc Dunnet's multiple comparisons test (P<0.05), utilizing GraphPad Prism 6.0 (GraphPad Software, La Jolla, Calif.). Asterisks (*) represent significant difference between treatment of J774 cells with compound 148 in comparison to vancomycin.

[3] = test system: human colorectal adenocarcinoma (Caco-2) cell; assay: In vitro cytotoxicity, MTS assay; assay type: cell-based
Description: Compounds 144, 148, 151, 155, 158, and 187 were assayed (at concentrations of 16, 32, and 64 μg/mL) against a human colorectal adenocarcinoma (Caco-2) cell to determine the potential toxic effect to mammalian cells in vitro. Briefly, cells were cultured in Dulbecco's Modified Eagle Medium (DMEM) supplemented with 10% fetal bovine serum (FBS), non-essential amino acids (1×), penicillin-streptomycin at 37° C. in presence of 5% CO2. Control cells received DMSO alone at a concentration equal to that in drug-treated wells. The cells were incubated with the compounds (in triplicate) in a 96-well plate at 37° C. with 5% CO2 for two hours. This was followed by the subsequent addition of the assay reagent MTS 3-(4,5-dimethylthiazol-2-yl)-5-(3-carboxymethoxyphenyl)-2-(4-sulfophenyl)-2H-tetrazolium) (Promega, Madison, Wis., USA) and the plate was incubated for three to four hours. Absorbance readings (at OD490) were recorded using a kinetic microplate reader (Molecular Devices, Sunnyvale, Calif., USA). The quantity of viable cells after treatment with each compound was expressed as a percentage of the viability of DMSO-treated control cells (average of triplicate wells±standard deviation).
FIG. 3. Analyzing the toxicity of 144, 148, 151, 155, 158, and 187 compounds (tested in triplicates at 16, 32 and 64 μg/mL) against human colorectal cells (Caco-2) using the MTS 3-(4,5-dimethylthiazol-2-yl)-5-(3-carboxymethoxyphenyl)-2-(4-sulfophenyl)-2H-tetrazolium) assay. Results are presented as percent viable cells relative to DMSO (negative control) to determine a baseline measurement for the cytotoxic impact of each compound. The absorbance values represent an average of three samples analyzed for each compound. Error bars represent standard deviation values. The data were analyzed via a two-way ANOVA with post-hoc Dunnett's test for multiple comparisons. An asterisk (*) denotes statistical significance (P<0.05) between results for compounds and DMSO.

Row | SMILES | time required for complete eradication of the bacterial count (MRSA USA 400) | reduction in the bacterial count after 6 hours (MRSA USA 400; MRSA USA 400, after 6 hours) | reduction in the bacterial count after 6 hours (percent) (MRSA USA 400; MRSA USA 400, after 6 hours) | total protease production [1] | reduction of intracellular MRSA ([2]; 4 μg/mL) | reduction of intracellular MRSA (percent) ([2]; 4 μg/mL) | reduction of intracellular MRSA ([2]; 8 μg/mL) | reduction of intracellular MRSA (percent) ([2]; 8 μg/mL) | viable cells ([3]; Caco-2, at 32 μg/mL, relative to DMSO) | non-toxic concentration to Caco-2 cells ([3]; Caco-2, two hours incubation, MTS)
1 | C=C(C(=O)OC)C(c1ccc2ccccc2c1)C(O)c1cccc2ccccc12 (stereo not drawn) [Compound 148] | 12 h | 3 log10 | 99.9% | 87% | 0.8 log10 | 84.9% | about 2.52 log10 | 99.7% |  | 
2 | C=C1C(=O)O[C@H](c2ccccc2)[C@@H]1c1cccc2ccccc12 [Compound 151] | 2 h |  |  |  |  |  |  |  |  | 
3 | C=C1C(=O)O[C@H](c2cccc3ccccc23)[C@@H]1c1ccc2ccccc2c1 [Compound 155] | 2 h |  |  | 65% |  |  |  |  | 100% | ≤ 32 µg/mL
4 | C=C1C(=O)O[C@H](c2ccc3ccccc3c2)[C@@H]1c1ccc2ccccc2c1 [Compound 158] | 2 h |  |  | 56% |  |  |  |  |  | 
